US12364733B1, “Method for treating septic shock” (Inotrem, priority 2018, dated 2025)
Entries after “also recorded” stand apart in the source; their conditions may differ.

How the values were obtained:
[1] = Blood nangibotide concentrations by LC-MS/MS (pharmacokinetics, phase IIa trial); type: in vivo, human
Description: Blood nangibotide concentrations were determined by a validated LC-MS/MS method in accordance with European Medicines Agency (EMA) guidelines on bioanalytical method validation EMEA/CHMP/EWP/192217/2009, version EMA/275542/2014. The peptide was stabilized in the blood samples by treatment with a 10% trichloroacetic acid solution ([…], 4° C.) and centrifugation (3500 g, 10 min, 4° C.) to collect and freeze the supernatant before analysis. The lower limit of quantification (LLOQ) and upper limit of quantification (ULOQ) were 5 ng/mL and 1000 ng/mL respectively. Standard curve was linear over the range 5 ng/mL to 1000 ng/mL with a correlation coefficient greater than 0.995. Within-run and between-run precision and accuracy within +/−20% LLOQ and +/−15% (other levels up to ULOQ) were achieved during a 3-run validation for quality controls (QCs) for nangibotide.

[2] = tested on: septic shock patients; assay: Phase IIa clinical trial with nangibotide in septic shock patients: mortality; type: in vivo, human; conditions: for Sepsis-related mortality at 5 days, % / Sepsis-related mortality at 5 days, number of death / Sepsis-related mortality at 28 days, % / Sepsis-related mortality at 28 days, number of death / Sepsis-related mortality at 90 days, % / Sepsis-related mortality at 90 days, number of death: subgroup sTREM-1 at baseline above the median (433pg/mL); for All-cause mortality at 90 days, number of death / All-cause mortality at 5 days, % / All-cause mortality at 5 days, number of death / All-cause mortality at 28 days, % / All-cause mortality at 28 days, number of death / All-cause mortality at 90 days, %: whole population
Description: This was a randomized, double-blind, two-stage, placebo-controlled study. As described in FIG. 7, the study was composed of 2 stages with a similar treatment regimen, in which 0.3, 1.0 or 3.0 mg/kg/h of nangibotide (corresponding to peptide LR12, having an amino acid sequence as set forth in SEQ ID NO: 9, also known as motrem) was tested versus placebo. All patients with a diagnosis of septic shock were considered for study participation. All potential study patients underwent standard care management procedures. Patients with evidence of septic shock according to the Sepsis-3 definition (Singer et al, JAMA 2016) were considered for inclusion (i.e., patients suffering from sepsis and having (i) persisting hypotension requiring vasopressors to maintain their mean arterial pressure ≥65 mm Hg and (ii) a serum lactate level >2 mmol/L (18 mg/dL) despite adequate volume resuscitation).
After screening for eligibility, patients were randomized to one of the treatment arms. Then, they received either a 5 mg/kg loading dose of nangibotide over 15 minutes followed by a continuous intravenous (i.v.) infusion of nangibotide or a matching placebo on top of standard of care. Treatment with study drug was initiated as early as possible, but no later than 24 hours after the onset of septic shock, defined by the start of vasopressor therapy. Patients were treated until 12 (±2) hours after the resolution of their septic shock (defined as vasopressor withdrawal) with a maximum treatment duration of 5 days (120 hours).
Adverse events (AEs) were coded using the MedDRA dictionary version 18.1. Treatment-emergent adverse events (TEAEs) were summarized and listed. Analysis was performed in 49 septic shock patients. The demographic and baseline characteristics were summarized in a descriptive fashion within each population: categorical variables were summarized by contingency tables (frequencies and percentages). sTREM-1 levels at day 1 were also described (mean, standard deviation, standard error, median, quartiles and range, minimum and maximum values). Mortality rates were reported by frequency and percentage. For continuous endpoints, i.e., the sequential organ failure assessment (SOFA), missing data were imputed using LOCF (Last Observation Carry-Forward). For time-to-event analyses, i.e., duration of invasive mechanical ventilation (IMV), duration of continuous renal replacement therapy (CRRT), survival, censored data techniques were utilized. In addition, a sensitivity analysis of time to event data (except survival) was performed using censoring at maximum limit for the corresponding observation period (i.e., either day 28 or day 90). […] The following comparisons were made: each nangibotide dose arm to placebo, all nangibotide doses combined versus placebo, and dose-response using an ordinal trend test. Exploratory composite endpoint: incidence (number and proportion) of patients alive at day 28 and free of vasopressor, free of IMV and free of CRRT were summarized by treatment and compared between treatments with a Fisher's exact test. For pharmacodynamic markers, log transformed data were represented as percentage change from baseline at day 5 or End of Infusion (EOI) if end of infusion was stopped before day 5. […] “All nangibotide” refers to analyses obtained by pooling data from 0.3, 1 and 3 mg/kg/h nangibotide-treated groups.

[3] = 0.3 mg/kg/h (N = 6), 1st dose column
[4] = 0.3 mg/kg/h (N = 6), 2nd dose column
[5] = 0.3 mg/kg/h (N = 8), 3rd dose column
[6] = 0.3 mg/kg/h (N = 12), 3rd dose column
[7] = 0.3 mg/kg/h (N = 13), 1st dose column
[8] = 1.0 mg/kg/h (N = 12), 2nd dose column
[9] = pooled (N = 37), listed as nangibotide

nangibotide (LQEEDAGEYGCM; TLT-1 peptide)
nangibotide blood concentration versus dose ([1]; 0.3, 1.0, 3.0 mg/kg/h): proportional with the dose
clearance after the end of infusion ([1]; human, in vivo): quickly cleared
pharmacokinetics / blood concentrations compared with healthy volunteers ([1]; in vivo): within the same range previously observed in healthy volunteers
pharmacokinetic behavior during intravenous infusion ([1]; in vivo, iv): linear behavior
mortality vs. placebo ([2]; nangibotide group, whole study): consistent trend in the proportion of death patients in favor of nangibotide-treated groups; also recorded: non-significant lower mortality
Sepsis-related mortality at 5 days, % [2, 3]: 17%
Sepsis-related mortality at 5 days, number of death [2, 3]: 1
Sepsis-related mortality at 28 days, % [2, 3]: 17%
Sepsis-related mortality at 28 days, number of death [2, 3]: 1
Sepsis-related mortality at 90 days, % [2, 3]: 17%
Sepsis-related mortality at 90 days, number of death [2, 3]: 1
Sepsis-related mortality at 5 days, % [2, 4]: 17%
Sepsis-related mortality at 5 days, number of death [2, 4]: 1
Sepsis-related mortality at 28 days, % [2, 4]: 17%
Sepsis-related mortality at 28 days, number of death [2, 4]: 1
Sepsis-related mortality at 90 days, % [2, 4]: 17%
Sepsis-related mortality at 90 days, number of death [2, 4]: 1
Sepsis-related mortality at 5 days, number of death [2, 5]: 2
Sepsis-related mortality at 28 days, number of death [2, 5]: 2
Sepsis-related mortality at 90 days, number of death [2, 5]: 2
Sepsis-related mortality at 5 days, % ([2]; pooled (N = 20)): 20%
Sepsis-related mortality at 5 days, number of death ([2]; pooled (N = 20)): 4
Sepsis-related mortality at 28 days, % ([2]; pooled (N = 20)): 20%
Sepsis-related mortality at 28 days, number of death ([2]; pooled (N = 20)): 4
Sepsis-related mortality at 90 days, % ([2]; pooled (N = 20)): 20%
Sepsis-related mortality at 90 days, number of death ([2]; pooled (N = 20)): 4
All-cause mortality at 90 days, number of death ([2]; 0.3 mg/kg/h (N = 12), 2nd dose column): 2
All-cause mortality at 5 days, % [2, 6]: 17%
All-cause mortality at 5 days, number of death [2, 6]: 2
All-cause mortality at 28 days, % [2, 6]: 25%
All-cause mortality at 28 days, number of death [2, 6]: 3
All-cause mortality at 90 days, % [2, 6]: 33%
All-cause mortality at 90 days, number of death [2, 6]: 4
All-cause mortality at 5 days, % [2, 7]: 7.7%
All-cause mortality at 5 days, number of death [2, 7]: 1
All-cause mortality at 28 days, % [2, 7]: 15%
All-cause mortality at 28 days, number of death [2, 7]: 2
All-cause mortality at 90 days, % [2, 7]: 32%
All-cause mortality at 90 days, number of death [2, 7]: 4
All-cause mortality at 5 days, % [2, 8]: 8.3%
All-cause mortality at 5 days, number of death [2, 8]: 1
All-cause mortality at 28 days, % [2, 8]: 8.3%
All-cause mortality at 28 days, number of death [2, 8]: 1
All-cause mortality at 90 days, % [2, 8]: 17%
All-cause mortality at 5 days, % ([2]; pooled (N = 37)): 11%
All-cause mortality at 5 days, number of death ([2]; pooled (N = 37)): 4
All-cause mortality at 28 days, % ([2]; pooled (N = 37)): 16%
All-cause mortality at 28 days, number of death ([2]; pooled (N = 37)): 6
All-cause mortality at 90 days, % ([2]; pooled (N = 37)): 27%
All-cause mortality at 90 days, number of death ([2]; pooled (N = 37)): 10
All-cause mortality at 28 days, % [2, 9]: 14%
All-cause mortality at 28 days, number of death [2, 9]: 5
